From ChEMBL document CHEMBL3714716, “Modulators of the relaxin receptor 1” (2015)
≈ marks a conversion by molar mass, not a printed value. Calls of active or inactive are those of the source. The rule behind the calls is not given here.

Columns and labels:
[1] = target: T1, Relaxin receptor 1 (Homo sapiens) (UniProt Q9HBX9); assay: Agonist activity at RXFP1 receptor (unknown origin) expressed in HEK293 cells assessed as stimulation of cAMP production incubated for 30 mins by TR-FRET based HTRF assay relative to forskolin; type: functional, cell-based
T1 sequence (whole entry): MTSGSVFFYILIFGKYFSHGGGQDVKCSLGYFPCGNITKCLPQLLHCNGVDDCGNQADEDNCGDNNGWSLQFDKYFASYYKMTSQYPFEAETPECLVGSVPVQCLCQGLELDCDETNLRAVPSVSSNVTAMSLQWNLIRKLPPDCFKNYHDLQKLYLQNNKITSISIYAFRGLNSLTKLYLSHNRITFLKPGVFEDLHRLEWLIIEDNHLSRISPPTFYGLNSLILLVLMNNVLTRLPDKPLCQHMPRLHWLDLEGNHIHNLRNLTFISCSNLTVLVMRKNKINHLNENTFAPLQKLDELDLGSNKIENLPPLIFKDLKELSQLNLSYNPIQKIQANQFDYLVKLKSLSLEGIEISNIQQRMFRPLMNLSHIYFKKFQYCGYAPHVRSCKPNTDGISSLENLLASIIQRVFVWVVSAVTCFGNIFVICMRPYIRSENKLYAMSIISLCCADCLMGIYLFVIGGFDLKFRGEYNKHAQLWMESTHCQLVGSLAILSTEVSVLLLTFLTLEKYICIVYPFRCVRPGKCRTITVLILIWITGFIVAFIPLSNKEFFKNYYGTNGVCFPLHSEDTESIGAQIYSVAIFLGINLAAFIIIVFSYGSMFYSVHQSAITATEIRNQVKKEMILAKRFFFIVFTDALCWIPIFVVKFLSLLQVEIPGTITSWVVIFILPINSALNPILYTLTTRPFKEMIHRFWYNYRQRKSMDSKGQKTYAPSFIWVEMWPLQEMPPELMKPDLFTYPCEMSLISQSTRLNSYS

Relaxin receptor 1 [2] = target: T2, Relaxin receptor 1 (Homo sapiens, UniProt Q9HBX9); assay: Agonist activity at RXFP1 receptor (unknown origin) expressed in HEK293 cells assessed as stimulation of cAMP production incubated for 30 mins by TR-FRET based HTRF assay; type: functional, cell-based
T2 sequence (Q9HBX9 whole entry): T1 sequence (whole entry)

[3] = Stimulation of VEGF gene expression in human THP1 cells assessed as change in VEGF mRNA level incubated for 2 hrs by quantitative real time RT-PCR method relative to control; type: functional, cell-based; conditions: THP-1
Relaxin receptor 1 [4] = target: T2, Relaxin receptor 1; assay: Agonist activity at RXFP1 receptor in human THP1 cells assessed as stimulation of cAMP production incubated for 30 mins by HTRF assay; type: functional, cell-based, THP-1
[5] = Solubility in PBS buffer; type: physicochemical
Relaxin receptor 2 [6] = target: T3, Relaxin receptor 2 (Homo sapiens, UniProt Q8WXD0); assay: Agonist activity at RXFP2 receptor (unknown origin) expressed in HEK293 cells assessed as stimulation of cAMP production incubated for 30 mins by HTRF assay relative to control; type: functional, cell-based
T3 sequence (Q8WXD0 whole entry): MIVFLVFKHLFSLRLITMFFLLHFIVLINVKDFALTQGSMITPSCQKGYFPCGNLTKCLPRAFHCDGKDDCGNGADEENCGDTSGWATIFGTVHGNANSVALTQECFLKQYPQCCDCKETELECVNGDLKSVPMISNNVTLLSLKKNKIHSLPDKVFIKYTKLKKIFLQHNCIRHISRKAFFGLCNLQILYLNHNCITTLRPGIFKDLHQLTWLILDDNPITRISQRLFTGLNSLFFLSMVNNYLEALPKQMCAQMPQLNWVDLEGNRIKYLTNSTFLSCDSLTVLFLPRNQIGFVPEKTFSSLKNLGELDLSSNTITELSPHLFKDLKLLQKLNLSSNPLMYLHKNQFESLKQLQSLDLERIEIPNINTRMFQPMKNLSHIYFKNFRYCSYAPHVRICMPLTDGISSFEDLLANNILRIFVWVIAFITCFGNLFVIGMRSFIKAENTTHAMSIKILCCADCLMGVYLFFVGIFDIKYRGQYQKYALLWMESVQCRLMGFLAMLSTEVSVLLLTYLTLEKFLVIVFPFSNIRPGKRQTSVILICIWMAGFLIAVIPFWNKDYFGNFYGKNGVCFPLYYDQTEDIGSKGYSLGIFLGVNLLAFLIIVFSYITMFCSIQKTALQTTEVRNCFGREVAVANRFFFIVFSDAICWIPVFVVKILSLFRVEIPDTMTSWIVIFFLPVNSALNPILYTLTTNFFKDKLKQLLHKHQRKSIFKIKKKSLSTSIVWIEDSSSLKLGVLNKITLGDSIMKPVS

HEK293 = assay: Cytotoxic activity against HEK293 cells assessed as reduction in cell viability by measuring ATP level incubated for 72 hrs by ATP cytotoxicity assay; type: cell-based, Homo sapiens
[7] = Cytotoxic activity against HEK293 cells assessed as reduction in cell viability by measuring ATP level incubated for 72 hrs by ATP cytotoxicity assay relative to control; type: cell-based; conditions: human, read-out: %max
[8] = target: T4, Vasopressin V1b receptor (Homo sapiens) (UniProt P47901); assay: Agonist activity at vasopressin receptor 1b (unknown origin) expressed in HEK293 cells assessed as stimulation of cAMP production incubated for 30 mins by HTRF assay relative to control; type: functional, cell-based
T4 sequence (whole entry): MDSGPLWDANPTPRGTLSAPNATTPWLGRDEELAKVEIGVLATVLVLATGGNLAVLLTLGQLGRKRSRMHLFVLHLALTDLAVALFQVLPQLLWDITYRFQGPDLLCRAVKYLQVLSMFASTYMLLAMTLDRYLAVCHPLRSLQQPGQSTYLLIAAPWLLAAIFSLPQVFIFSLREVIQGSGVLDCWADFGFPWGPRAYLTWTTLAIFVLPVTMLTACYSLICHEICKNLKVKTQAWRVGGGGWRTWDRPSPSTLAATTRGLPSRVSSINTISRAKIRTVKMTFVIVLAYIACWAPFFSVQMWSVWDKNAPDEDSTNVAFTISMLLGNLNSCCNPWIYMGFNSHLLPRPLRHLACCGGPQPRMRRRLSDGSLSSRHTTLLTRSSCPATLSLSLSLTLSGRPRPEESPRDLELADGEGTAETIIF

Relaxin receptor 2 [9] = target: T3, Relaxin receptor 2; assay: Agonist activity at RXFP2 receptor (unknown origin) expressed in HEK293 cells assessed as stimulation of cAMP production incubated for 30 mins by HTRF assay; type: functional, cell-based
Vasopressin V1b receptor = target: T5, Vasopressin V1b receptor (Homo sapiens, UniProt P47901); assay: Agonist activity at vasopressin receptor 1b (unknown origin) expressed in HEK293 cells assessed as stimulation of cAMP production incubated for 30 mins by HTRF assay; type: functional, cell-based
T5 sequence (P47901 whole entry): T4 sequence (whole entry)

[10] = Half life in mouse liver microsomes; type: ADME
[11] = target: T1, Relaxin receptor 1 (Homo sapiens); assay: Agonist activity at RXFP1 receptor (unknown origin) expressed in HEK293 cells assessed as increase cell impedance at 250 to 750 nM measured every 10 to 30 secs for 1 hr by real time cell analyzer method; type: functional, cell-based
[12] = Homo sapiens, HEK293, 72 h, read-out: EC50

%max [1]	AC50 (Relaxin receptor 1 [2]; read-out: AC50)	EC50 (Relaxin receptor 1 [4])	solubility [5]	%max (Relaxin receptor 2 [6])	%max [8]	AC50 (Relaxin receptor 1 [2]; hek293)	AC50 (Relaxin receptor 2 [9]; read-out: AC50)	AC50 (Vasopressin V1b receptor)	AC50 (Relaxin receptor 2 [9]; hek293)	half-life [10]	SMILES	fold change (FC) [3]	EC50 (HEK293; hek293)	Emax at 72 h [7]	EC50 (HEK293; [12])	Activity [11]
98%	0.052 µM	0.105 µM	–	–	–	–	–	–	–	–	CCCOc1ccccc1C(=O)Nc1ccccc1C(=O)Nc1cccc(S(=O)(=O)C(F)(F)F)c1	1.5	–	–	–	–
99%	–	0.362 µM	–	–	–	–	–	–	–	–	CCOc1ccccc1C(=O)Nc1ccccc1C(=O)Nc1cccc(S(=O)(=O)C(F)(F)F)c1	2.3	–	–	–	–
94%	0.265 µM	0.471 µM	–	–	–	–	–	–	–	–	CCOc1ccccc1C(=O)Nc1ccccc1C(=O)Nc1cccc(C(F)(F)F)c1	1.9	–	–	–	–
inactive	–	–	1.7 µM (≈ 0.614 µg/mL)	47%	< 30%	Not Active	9.4 µM	Not Active	–	–	O=C(Nc1ccc2cc[nH]c2c1)c1ccccc1NC(=O)C1CCCCC1	–	Non-toxic	< 30%	–	–
51%	7.47 µM	–	17 µM (≈ 6.55 µg/mL)	< 30%	< 30%	–	–	Not Active	Not Active	–	O=C(Nc1ccccc1C(=O)Nc1cccc(C(F)(F)F)c1)c1ccncc1	–	–	83%	9.4 µM	–
92%	0.047 µM	–	5.3 µM (≈ 2.07 µg/mL)	< 30%	< 30%	–	–	Not Active	Not Active	–	O=C(Nc1cccc(C(F)(F)F)c1)c1ccccc1NC(=O)C1CCCCC1	–	–	-53%	59.3 µM	–
93%	14.9 µM	–	< 1.1 µM	38%	< 30%	–	7.47 µM	Not Active	–	–	O=C(Nc1ccccc1C(=O)Nc1cccc(C(F)(F)F)c1)c1ccno1	–	–	-73%	–	–
88%	1.88 µM	–	3.3 µM (≈ 1.29 µg/mL)	< 30%	< 30%	–	–	Not Active	Not Active	1.67 h	O=C(Nc1ccccc1C(=O)Nc1cccc(C(F)(F)F)c1)c1cccs1	–	–	-78%	–	–
90%	11.8 µM	–	6.3 µM (≈ 2.67 µg/mL)	< 30%	< 30%	–	–	Not Active	Not Active	–	O=C(Nc1cccc(C(F)(F)F)c1)c1ccccc1NC(=O)c1cccc2nc[nH]c12	–	–	-76%	–	–
95%	5.93 µM	–	7 µM (≈ 2.7 µg/mL)	< 30%	< 30%	–	–	Not Active	Not Active	–	O=C(Nc1ccccc1C(=O)Nc1cccc(C(F)(F)F)c1)c1cccnc1	–	–	85%	9.4 µM	–
81%	6.66 µM	–	2.9 µM (≈ 1.24 µg/mL)	54%	< 30%	–	3.34 µM	Not Active	–	–	O=C(Nc1ccccc1C(=O)Nc1cccc(C(F)(F)F)c1)c1ccc2c(c1)OCO2	–	–	-31%	3.74 µM	–
99%	0.297 µM	0.523 µM	–	–	–	–	–	–	–	–	COc1ccccc1C(=O)Nc1ccccc1C(=O)Nc1cccc(SC(F)(F)F)c1	1.2	–	–	–	–

SMILES	%max [1]	AC50 (Relaxin receptor 1 [2]; read-out: AC50)	EC50 (Relaxin receptor 1 [4])	solubility [5]	%max (Relaxin receptor 2 [6])	%max [8]	AC50 (Relaxin receptor 1 [2]; hek293)	AC50 (Relaxin receptor 2 [9]; read-out: AC50)	AC50 (Vasopressin V1b receptor)	AC50 (Relaxin receptor 2 [9]; hek293)	half-life [10]	fold change (FC) [3]	EC50 (HEK293; hek293)	Emax at 72 h [7]	EC50 (HEK293; [12])	Activity [11]
COc1ccccc1C(=O)Nc1ccccc1C(=O)Nc1cccc(S(=O)(=O)C(F)(F)F)c1	99%	0.188 µM	0.358 µM	–	–	–	–	–	–	–	–	1.4	–	–	–	–
O=C(Nc1cccc(S(=O)(=O)C(F)(F)F)c1)c1ccccc1NC(=O)c1ccccc1OCC(F)(F)F	97%	0.067 µM	0.107 µM	–	–	–	–	–	–	–	–	1.3	–	–	–	–
CCCCOc1ccccc1C(=O)Nc1ccccc1C(=O)Nc1cccc(S(=O)(=O)C(F)(F)F)c1	98%	0.047 µM	0.124 µM	–	–	–	–	–	–	–	–	1.6	–	–	–	Active
